The results in this text go back to ChEMBL document CHEMBL5465560, “Selectivity Literature for EUbOPEN Chemogenomic Library” (2024).

The structures appear in SMILES notation. pIC50: −log10 of the molar value.

In assay [1] the target is Epidermal growth factor receptor (Homo sapiens, UniProt P00533). The experiment in a line: Selectivity interaction (Enzyme panel (AstraZeneca, AlphaScreen, functional assay)) EUB0000621a EGFR.
The target in assay [2] is T1, Serine/threonine-protein kinase TAO1 (Homo sapiens) (UniProt Q7L7X3).
T1 sequence (whole entry): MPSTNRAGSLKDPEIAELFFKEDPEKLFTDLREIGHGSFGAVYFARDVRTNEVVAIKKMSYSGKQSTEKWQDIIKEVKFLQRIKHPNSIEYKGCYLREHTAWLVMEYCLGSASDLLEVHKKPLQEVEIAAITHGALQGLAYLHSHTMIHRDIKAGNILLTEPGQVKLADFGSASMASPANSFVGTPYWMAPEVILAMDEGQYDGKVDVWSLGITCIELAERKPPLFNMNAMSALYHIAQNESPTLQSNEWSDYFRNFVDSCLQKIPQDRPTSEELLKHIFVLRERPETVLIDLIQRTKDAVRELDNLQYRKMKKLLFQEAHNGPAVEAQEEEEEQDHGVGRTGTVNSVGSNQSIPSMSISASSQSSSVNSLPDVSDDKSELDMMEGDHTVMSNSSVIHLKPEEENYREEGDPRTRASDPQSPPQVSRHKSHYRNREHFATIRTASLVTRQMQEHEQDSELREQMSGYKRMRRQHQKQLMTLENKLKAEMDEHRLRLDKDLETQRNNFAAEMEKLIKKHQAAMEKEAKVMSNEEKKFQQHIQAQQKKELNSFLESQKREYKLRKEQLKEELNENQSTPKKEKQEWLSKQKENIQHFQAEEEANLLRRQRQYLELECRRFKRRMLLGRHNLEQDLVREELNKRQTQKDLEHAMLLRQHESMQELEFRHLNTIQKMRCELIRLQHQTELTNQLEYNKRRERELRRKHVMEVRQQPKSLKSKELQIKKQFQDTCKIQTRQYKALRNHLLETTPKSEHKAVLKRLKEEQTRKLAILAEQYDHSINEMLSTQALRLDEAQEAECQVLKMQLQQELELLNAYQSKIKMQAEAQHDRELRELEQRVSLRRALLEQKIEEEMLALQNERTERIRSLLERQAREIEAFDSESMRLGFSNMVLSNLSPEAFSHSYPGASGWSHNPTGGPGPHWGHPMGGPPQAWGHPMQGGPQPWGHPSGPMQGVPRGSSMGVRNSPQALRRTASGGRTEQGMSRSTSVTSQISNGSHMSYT
Briefly: Selectivity interaction (KinomeScan (DiscoverX)) EUB0000666a TAOK1. The settings on record: at 10 µM.

In assay [3] the target is Serine/threonine-protein kinase 32C (Homo sapiens) (UniProt Q86UX6). Briefly: Selectivity interaction (KinomeScan (DiscoverX)) EUB0000655a STK32C. The settings on record: at 10 µM.
Sequence of Serine/threonine-protein kinase 32C (Homo sapiens) (Q86UX6 whole entry): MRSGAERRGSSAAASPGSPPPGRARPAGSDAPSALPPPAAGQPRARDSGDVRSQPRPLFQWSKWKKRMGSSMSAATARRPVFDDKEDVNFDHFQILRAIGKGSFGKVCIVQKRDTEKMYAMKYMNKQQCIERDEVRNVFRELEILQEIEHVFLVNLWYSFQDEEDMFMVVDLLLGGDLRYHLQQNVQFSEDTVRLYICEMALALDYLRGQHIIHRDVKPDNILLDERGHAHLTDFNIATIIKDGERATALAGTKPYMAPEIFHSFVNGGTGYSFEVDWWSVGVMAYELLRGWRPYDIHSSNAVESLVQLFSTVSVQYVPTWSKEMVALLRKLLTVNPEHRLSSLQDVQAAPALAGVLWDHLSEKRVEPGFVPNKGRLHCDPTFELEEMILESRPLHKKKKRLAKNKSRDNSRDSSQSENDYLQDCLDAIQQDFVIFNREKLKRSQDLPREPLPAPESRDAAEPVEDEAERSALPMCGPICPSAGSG
Assay [4] addresses Interferon-induced, double-stranded RNA-activated protein kinase (Homo sapiens) (UniProt P19525). The experiment in a line: Selectivity interaction (ActivX KiNativ screen (ex vivo kinase selectivity in human PBMCs)) EUB0001619a EIF2AK2. The format is cell-based. To be noted: PBMC, at 1 µM.
The target in assay [5] is T2, Myosin-IIIb (Homo sapiens) (UniProt Q8WXR4).
T2 sequence (whole entry): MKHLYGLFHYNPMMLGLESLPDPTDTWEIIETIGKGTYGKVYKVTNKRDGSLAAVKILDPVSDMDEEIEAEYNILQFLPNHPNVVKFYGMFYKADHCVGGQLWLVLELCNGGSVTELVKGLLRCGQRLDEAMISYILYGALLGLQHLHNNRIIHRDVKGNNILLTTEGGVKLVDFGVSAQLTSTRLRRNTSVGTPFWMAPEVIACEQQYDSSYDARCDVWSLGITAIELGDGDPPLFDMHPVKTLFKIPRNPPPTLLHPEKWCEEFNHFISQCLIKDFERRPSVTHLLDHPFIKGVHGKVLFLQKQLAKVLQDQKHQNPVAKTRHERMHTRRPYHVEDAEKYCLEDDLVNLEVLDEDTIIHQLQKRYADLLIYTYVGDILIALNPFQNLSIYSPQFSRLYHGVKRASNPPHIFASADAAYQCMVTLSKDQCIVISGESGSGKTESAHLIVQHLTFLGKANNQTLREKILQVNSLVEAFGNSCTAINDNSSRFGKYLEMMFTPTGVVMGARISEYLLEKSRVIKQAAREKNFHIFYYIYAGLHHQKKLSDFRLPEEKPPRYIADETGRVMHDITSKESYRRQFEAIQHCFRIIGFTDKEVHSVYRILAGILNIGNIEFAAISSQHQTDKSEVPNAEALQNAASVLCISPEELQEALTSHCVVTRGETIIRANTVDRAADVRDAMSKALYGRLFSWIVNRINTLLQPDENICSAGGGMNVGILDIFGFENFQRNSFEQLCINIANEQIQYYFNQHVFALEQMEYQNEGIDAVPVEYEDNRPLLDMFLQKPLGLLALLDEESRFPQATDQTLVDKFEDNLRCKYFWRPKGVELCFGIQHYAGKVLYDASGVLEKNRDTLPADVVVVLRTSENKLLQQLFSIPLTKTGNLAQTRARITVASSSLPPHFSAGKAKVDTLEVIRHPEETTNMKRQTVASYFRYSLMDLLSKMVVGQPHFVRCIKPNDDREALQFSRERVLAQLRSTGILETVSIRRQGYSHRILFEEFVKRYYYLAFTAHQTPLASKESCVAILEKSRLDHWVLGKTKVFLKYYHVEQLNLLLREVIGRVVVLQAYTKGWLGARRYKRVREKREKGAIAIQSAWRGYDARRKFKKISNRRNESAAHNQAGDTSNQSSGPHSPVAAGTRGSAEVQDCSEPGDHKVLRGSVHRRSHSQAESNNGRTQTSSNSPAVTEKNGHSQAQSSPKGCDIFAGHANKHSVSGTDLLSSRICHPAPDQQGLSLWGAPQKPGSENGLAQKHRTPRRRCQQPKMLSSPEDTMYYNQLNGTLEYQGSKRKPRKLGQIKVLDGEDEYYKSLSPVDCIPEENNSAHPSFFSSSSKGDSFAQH
To be noted: at 10 µM.

Assay [6] deals with T3, N-lysine methyltransferase KMT5A (Homo sapiens) (UniProt Q9NQR1).
T3 sequence (whole entry): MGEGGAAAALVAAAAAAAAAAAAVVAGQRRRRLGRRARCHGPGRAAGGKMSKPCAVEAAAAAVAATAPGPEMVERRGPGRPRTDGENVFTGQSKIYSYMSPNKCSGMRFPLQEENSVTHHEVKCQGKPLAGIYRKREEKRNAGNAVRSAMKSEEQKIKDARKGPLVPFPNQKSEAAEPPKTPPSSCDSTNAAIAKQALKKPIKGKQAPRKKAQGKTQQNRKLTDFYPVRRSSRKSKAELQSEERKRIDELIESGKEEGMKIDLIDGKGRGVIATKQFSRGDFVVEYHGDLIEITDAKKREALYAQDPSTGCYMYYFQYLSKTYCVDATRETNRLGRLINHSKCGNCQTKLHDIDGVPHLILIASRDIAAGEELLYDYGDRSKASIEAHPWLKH
Briefly: Selectivity interaction (Transferase panel (protein, RNA, and DNA methyltransferases. and EP300 (acetyltransferase))) EUB0000270b SETD8.

Sequence of Epidermal growth factor receptor (P00533 whole entry): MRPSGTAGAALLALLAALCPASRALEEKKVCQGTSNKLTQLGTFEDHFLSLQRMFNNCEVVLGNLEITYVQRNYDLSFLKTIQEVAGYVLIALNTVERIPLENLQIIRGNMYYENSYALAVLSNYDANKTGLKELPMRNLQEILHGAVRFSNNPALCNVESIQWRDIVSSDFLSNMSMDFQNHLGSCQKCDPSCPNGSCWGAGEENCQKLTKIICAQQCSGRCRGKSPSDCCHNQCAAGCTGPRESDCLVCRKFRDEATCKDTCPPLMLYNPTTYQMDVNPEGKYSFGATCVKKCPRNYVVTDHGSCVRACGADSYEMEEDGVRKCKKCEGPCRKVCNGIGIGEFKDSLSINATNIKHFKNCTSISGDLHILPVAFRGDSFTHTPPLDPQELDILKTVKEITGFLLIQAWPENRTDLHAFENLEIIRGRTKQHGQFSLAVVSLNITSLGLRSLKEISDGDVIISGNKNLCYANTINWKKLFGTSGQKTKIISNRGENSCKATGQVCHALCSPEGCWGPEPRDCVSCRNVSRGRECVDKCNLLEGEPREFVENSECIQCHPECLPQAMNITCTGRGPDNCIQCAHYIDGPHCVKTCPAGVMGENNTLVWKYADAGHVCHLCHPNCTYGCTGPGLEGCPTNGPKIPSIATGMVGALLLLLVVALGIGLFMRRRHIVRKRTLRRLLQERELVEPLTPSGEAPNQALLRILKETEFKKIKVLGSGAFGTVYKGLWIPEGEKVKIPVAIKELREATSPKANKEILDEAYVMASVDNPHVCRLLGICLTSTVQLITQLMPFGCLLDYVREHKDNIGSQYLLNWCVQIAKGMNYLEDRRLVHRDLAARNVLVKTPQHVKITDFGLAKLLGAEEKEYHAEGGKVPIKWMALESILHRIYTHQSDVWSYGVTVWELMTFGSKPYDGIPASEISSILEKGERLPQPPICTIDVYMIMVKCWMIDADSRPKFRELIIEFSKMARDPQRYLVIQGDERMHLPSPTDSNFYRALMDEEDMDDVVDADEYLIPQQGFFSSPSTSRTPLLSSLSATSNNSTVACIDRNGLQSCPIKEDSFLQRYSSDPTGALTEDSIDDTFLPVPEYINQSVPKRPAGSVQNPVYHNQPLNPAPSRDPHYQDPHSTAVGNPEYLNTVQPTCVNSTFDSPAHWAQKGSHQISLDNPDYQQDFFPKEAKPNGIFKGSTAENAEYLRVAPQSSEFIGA
Sequence of Interferon-induced, double-stranded RNA-activated protein kinase (Homo sapiens) (P19525 whole entry): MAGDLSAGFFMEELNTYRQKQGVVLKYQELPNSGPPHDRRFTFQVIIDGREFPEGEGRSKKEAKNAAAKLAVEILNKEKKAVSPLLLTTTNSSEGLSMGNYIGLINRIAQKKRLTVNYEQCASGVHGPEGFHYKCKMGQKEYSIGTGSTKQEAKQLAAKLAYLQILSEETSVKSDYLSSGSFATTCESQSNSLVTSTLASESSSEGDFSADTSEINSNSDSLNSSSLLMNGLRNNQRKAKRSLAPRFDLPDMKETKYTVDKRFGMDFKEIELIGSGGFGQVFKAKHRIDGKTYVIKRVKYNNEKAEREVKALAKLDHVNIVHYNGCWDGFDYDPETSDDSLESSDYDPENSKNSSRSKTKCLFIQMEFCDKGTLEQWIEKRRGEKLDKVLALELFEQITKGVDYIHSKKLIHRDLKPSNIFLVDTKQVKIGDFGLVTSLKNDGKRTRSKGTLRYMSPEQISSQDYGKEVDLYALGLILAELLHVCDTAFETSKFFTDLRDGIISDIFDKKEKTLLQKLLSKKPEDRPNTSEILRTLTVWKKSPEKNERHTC

What is called pIC50 is the negative decadic logarithm of the IC50, by convention in mol/L. Low readings indicate a high IC50, high ones a low IC50. `Cc1cc([C@@H](C)Nc2ccccc2C(=O)O)c2nc(N3CCOCC3)cc(=O)n2c1` [AZD-6482] had a negative-log IC50 (pIC50) in assay [1] of less than 3.53.

The compound `O=C(NOC[C@H](O)CO)c1ccc(F)c(F)c1Nc1ccc(I)cc1F` returned a % of control in assay [2] of 100%.

`CN(C)CCOc1ccc(-c2nc(-c3ccncc3)c(-c3ccc4c(c3)CC/C4=N\O)[nH]2)cc1` came in with a % of control in assay [3] of 100%.

`N#Cc1cccc(-c2c[nH]c3ncnc(N4CCOCC4)c23)c1` yielded a % of inhibition in assay [4] of 7%.

`CCN(CC)CCCCNc1ncc2cc(-c3cc(OC)cc(OC)c3)c(NC(=O)NC(C)(C)C)nc2n1`: in assay [5], the % of control worked out at 100%.

As for `Cc1cc(CN)cc(C)c1-c1ncn(C)c1-c1cncn1C`, the results for the % activity in assay [6] (at 1 µM) and in assay [6] (at 10 µM) were more than 90% and more than 80%, respectively.
